Tests used:
Assay type in all cases: in vivo, mouse
Stab wound model mice [1] = assay: Stab wound model of traumatic brain injury: recovery / progress of brain injury (histology)
Stab wound model mice [2] = assay: Stab wound model: Evans Blue dye leakage to the injured site; settings: for leakage of the dye to the injured site: Stab wound model mice, Evans Blue after 2 days
Method: Degree of injury was quantified by a dye leakage (Evans Blue) to the injured site (Kakimura Y, et al., Nature Medicine, 4:1078-1080, 1998). After 2 days from injury, the maximum value was noted and, after that, it lowered as a result of recovery (refer to FIG. 20).
An effect of BW A868C or ramatroban ((±)-(3R)-3-(4-fluorobenzenesulfonamide)-1,2,3,4-tetrahydrocarbazol-9-propionic acid) which is an antagonist for prostaglandin D receptor to Stab wound model mice was evaluated using leakage amount of dye to the injured site as an index. Thus, Evans Blue dye was intravenously administered after 2 days from occurrence of brain injury and the amount of leakage of the dye to the tissue during 2 hours thereafter was measured. When BW A868C (1 mg/kg) was intravenously administered after 3 hours and after one day from occurrence of the brain injury, leakage of the dye to the injured site was suppressed (refer to FIG. 27).
An effect of pinagladin which is a DP receptor antagonist to a Stab wound model was evaluated by a leakage amount of dye to the injured site. Thus, Evans Blue was intravenously injected on the second day after occurrence of brain injury and leakage amount of the dye into the tissue during 2 hours thereafter was measured. As a result, when pinagladin (10 mg/kg) was orally administered before 1 hour and after one day of the occurrence of the injury, an increase in leakage amount of Evans Blue dye noted as a result of brain injury was suppressed (refer to FIG. 24).

Twitcher mice = Twitcher mice (hereditary demyelinating disease): astroglia activation and DP receptor expression; settings: subcutaneous 30 mg/kg/day for 14 days
Source text: Changes in mRNA of H-PGDS and DP receptor as a result of demyelination were quantified by a quantitative RT-PCR method using a model mouse Twitcher of human Krabbe diseases which is a disease where galactosylceramidase is deficient (Kobayashi T, et al., Brain Res., 202:479-483, 1980; Duchen L W, et al., Brain, 103:695-710, 1980; Sakai N, et al., J. Neurochem., 66:1118-1124, 1996; Taniike M et al., J. Neuropathol. Exp. Neurol., 58:644-653, 1999) (refer to FIG. 1). Expression of mRNA of both H-PGDS and DP receptor increased as a result of demyelination.
HQL-79 (4-benzhydryloxy-1-{3-(1H-tetrazol-5-yl)-propyl}piperidine) which is an H-PGDS inhibitor was subcutaneously administered to Twitcher mice at the dose of 30 mg/kg/day for 14 days whereupon activation of astroglia cells was suppressed and, at the same time, expression of DP receptor in astroglia cells lowered (refer to FIG. 13).

DP receptor = assay: Stab wound model: DP receptor mRNA in tissue injury region; settings: oral 30 mg/kg/day for 4 days from one hour before injuring
[3] = traumatic brain injury, administration started after 24 hours from injury

SMILES: O=C(O)CCCCCCC1C(=O)N(Cc2ccccc2)C(=O)N1NCC(O)C1CCCCC1 (racemic) [BW A868C, (±)-3-benzyl-5-(6-carboxyhexyl)-1-(2-cyclohexyl-2-hydroxyethylamino)-hydantoin]
- recovery of brain injury (Stab wound model mice [1]; Stab wound model mice, intravenous 1 mg/kg/day for 4 days from the initial day of injury): promotion of recovery
- leakage of the dye to the injured site (Stab wound model mice [2]; 1 mg/kg intravenous after 3 hours and after one day from injury, leakage during 2 hours): suppressed

SMILES: CC1(C)[C@H]2C[C@H](C/C=C\CCCC(=O)O)[C@@H](NC(=O)c3csc4ccccc34)[C@@H]1C2 [pinagladin, (Z)-7-[(1R,2R,3S,5S)-2-(benzo[b]-thiophene-3-ylcarbonylamino)-10-norpinan-3-yl]hepta-5-enoic acid]
- progress of brain injury (histopathological investigation) (Stab wound model mice [1]; Stab wound model, in any of administration routes): suppressed the progress of brain injury
- increase in leakage amount of Evans Blue dye as a result of brain injury (Stab wound model mice [2]; Stab wound model, 10 mg/kg oral before 1 hour and after one day of injury, Evans Blue on second day, leakage during 2 hours): suppressed

SMILES: O=C(O)CCn1c2c(c3ccccc31)C[C@H](NS(=O)(=O)c1ccc(F)cc1)CC2 [ramatroban, (+)-(3R)-3-(4-fluorobenzenesulfonamide)-1,2,3,4-tetrahydrocarbazol-9-propionic acid]
- leakage of the dye to the injured site (Stab wound model mice [2]; 30 mg/kg oral after 3 hours and after one day from injury, leakage during 2 hours): suppressed

SMILES: c1ccc(C(OC2CCN(CCCc3nnn[nH]3)CC2)c2ccccc2)cc1 [HQL-79, 4-benzhydryloxy-1-{3-(1H-tetrazol-5-yl)-propyl}piperidine]
- activation of astroglia cells (Twitcher mice): suppressed
- expression of DP receptor in astroglia cells (Twitcher mice): lowered
- amount of mRNA of DP receptor in tissue injury region (DP receptor): lowered
- recovery of brain injury (Stab wound model mice [1]; Stab wound model, oral 30 mg/kg/day for 4 days from one hour before injuring): promotion of recovery
- tissue injury (expansion of injury) (Stab wound model mice [1]; [3]): inhibitory effect
- leakage reaction of dye to the injured site (Stab wound model mice [2]; Stab wound model, oral 30 mg/kg/day, administration started one hour before injury): therapeutic effect was also confirmed
- tissue injury (leakage of dye) (Stab wound model mice [2]; [3]): inhibitory effect

Source: patent US20050222235A1, “Drugs for improving the prognosis of brain injury and a method of screening the same” (priority 2002, published 2005)
